Measured values from patent US20240115649A1, “CASPASE INHIBITION TO ENHANCE REGENERATION AND REPAIR AFTER SKIN OR GUT INJURY AND TO TREAT BACTERIAL OR VIRAL INFECTIONS” (The Johns Hopkins University, priority 2020, published 2024).
Where a SMILES comes first, the peptide text is derived from it. The star is where a group is joined. Cbz = O=C(OCc1ccccc1)*; CH2F = FC*

Columns and labels:
[1] = system: BMDMs; assay: BMDM cultures with live S. aureus ± caspase inhibitors; conditions: live S. aureus 6 hours, Q-VD-OPH 10 μg/mL, Emricasan 9 μg/mL
[2] = system: mouse epithelial keratinocytes; assay: Mouse epithelial keratinocyte culture (qRT-PCR, immunoblot); conditions: for IL-36α protein (whole-cell lysates): mouse epithelial keratinocytes
[3] = system: mouse neutrophils; assay: Neutrophil cultures with live S. aureus ± caspase inhibitors; conditions: live S. aureus 6 hours, Q-VD-OPH 10 μg/mL, Emricasan 9 μg/mL
[4] = system: human keratinocytes; assay: Human keratinocyte culture (qRT-PCR, immunostaining)
Method: Human and Mouse Keratinocyte Isolation and Culture.
Quantitative real-time PCR (qRT-PCR).
Immunofluorescence, immunocytochemistry, and immunohistochemistry. […] After washing and permeabilization in TBS-T universal buffer (0.2% Triton X-100 in tris-buffered saline), sections were blocked at room-temperature in 5% goat, donkey or fetal bovine serum with 1% bovine serum albumin. […] Following subsequent washing, sections were incubated in fluorescent-dye conjugated secondary antibodies diluted in antibody diluent for 1 hour at room temperature. After final washing, sections were mounted with […] ® Hardset™ Antifade Mounting Medium with DAPI (Vector Laboratories, H-1500) for nuclear staining. Human keratinocytes were prepared similarly, with the exception of antigen retrieval. All slides were imaged using either the DFC365FX (Leica) or Eclipse E-800 (Nikon) at 10×, 20×, and 40× magnifications.

[5] = system: neogenic hair follicles; assay: Wound Induced Hair Neogenesis (WIHN) assay; format: in vivo, mice
Method: Wound Induced Hair Neogenesis (WIHN) Assay. All in vivo experimental surgical procedures were performed as previously characterized ^1,2,6-8. In short, after exposure to vaporizing anesthesia (Baxter, Isoflurane) the dorsal side of male and female 3-week-old (21 days) mice were shaved at approximately 8-10 g of weight. Using surgical scissors, approximately 1.26 cm^2×1.25 cm^2 of skin was excised creating wounds deep into the fascia. At 3 days post-wounding, a single dose (50 μl) of 100 μg/mL high molecular weight (HMW) polyinosinic-polycytidylic acid (Poly (I:C)) (Invivogen, tlrl-pic) was administered underneath the scab site via injection in both wild-type and transgenic mice as previously described^2,8. For functional experiments characterizing IL-36 on WIHN, a single dose (50 μl) of 1 μg/mL recombinant mouse IL-36α protein (R&D Systems, 7059-ML/CF) was injected underneath the scab site at 7 days post-wounding. For rescue experiments using the small molecule, broad spectrum pan-caspase inhibitor, 20 ul of 5 mg/mL Q-VD-OPh (in DMSO) was diluted 130 μL of phosphate-buffered saline (PBS) (1.33 mM final concentration) and injected intraperitoneally in mice 24 hours prior to wounding and approximately 10 days after wounding (scab detachment).
Immunofluorescence, immunocytochemistry, and immunohistochemistry.

[6] = no significant differences vs no treatment
[7] = RNase L siRNA transfected human keratinocytes, 10 μg/ml

With `C[C@H](NC(=O)C(=O)Nc1ccccc1C(C)(C)C)C(=O)N[C@@H](CC(=O)O)C(=O)COc1c(F)c(F)cc(F)c1F` [Emricasan] the “percentages of TNF+ BMDMs” value [1] was 33.53%, the “viable cells (Zombie UV negative cells)” value [1, 6] was roughly 80% and the “IL-36α protein (whole-cell lysates)” value [2] was “increased”. For the same molecule, the “percentages of TNF+ neutrophils” value [3] was 25.47% and the “viable cells (Zombie UV negative cells)” value [3, 6] was roughly 50%.

`CC(C)(O)c1coc(S(=O)(=O)NC(=O)Nc2c3c(cc4c2CCC4)CCC3)c1` [MCC950] was tested, and the “regeneration (morphogenesis) markers” value ([4]; MCC950 100 μM, further increased by exogenous dsRNA addition) was “greater regeneration markers than controls”.

`COC(=O)CC[C@H](NC(=O)[C@H](Cc1c[nH]c2ccccc12)NC(=O)OCc1ccccc1)C(=O)N[C@@H](Cc1cnc[nH]1)C(=O)N[C@@H](CC(=O)OC)C(=O)CF` [Z-WEHD-FMK] (Cbz-WE(OMe)HD(OMe)-CH2F) was tested, and the “IL-36 receptor (IL36r) expression” value ([2]; 48 hrs treatment) was “not affected”, the “IL-36 receptor antagonist (IL-36m) protein or mRNA levels” value ([2]; 48 hrs treatment) was “not affected” and the Tlr3 expression ([2]; 48 hrs treatment) was “elevated”. The “caspase gene mRNA (inflammatory caspases 1 and 4)” value ([2]; 48 hrs treatment) was “elevated” and the “IL-36α protein (whole-cell lysates)” value [2] was “increased”.

In the case of “polyinosinic-polycytidylic acid [poly (I:C)]”, the “WIHN (hair follicle regeneration)” value ([5]; Il36r^−/− mice) is reported as “not responsive”, the WIHN ([5]; Rnasel^−/− mice, poly (I:C) under the scab 3 days post-wounding) is reported as “intact super-increase” and the differentiation markers [4, 7] is reported as “inhibits differentiation markers”. The morphogenesis markers [4, 7] was “induces multiple morphogenesis markers” and the “Il36α and Casp1 levels” value ([2]; after siRNA-mediated RNase L loss, poly (I:C) 10 μg/ml, 48 hrs) was “boosted”.

B1: rmIL-36a: recombinant mouse IL-36α protein (R&D Systems, 7059-ML/CF) (protein, UniProt Q9JLA2 8-160, looked up)
Interleukin-36 alpha: RAASPSLRHVQDLSSRVWILQNNILTAVPRKEQTVPVTITLLPCQYLDTLETNRGDPTYMGVQRPMSCLFCTKDGEQPVLQLGEGNIMEMYNKKEPVKASLFYHKKSGTTSTFESAAFPGWFIAVCSKGSCPLILTQELGEIFITDFEMIVVH
With B1 the “increase in the number of neogenic hair follicles” value ([5]; 50 μl of 1 μg/mL injected underneath the scab at 7 days post-wounding, vs vehicle-treated controls) was greater than 2 fold.

B2: recombinant IL-36α: recombinant IL-36α used to treat human keratinocytes (protein, UniProt Q9UHA7 6-158, looked up)
Interleukin-36 alpha: KIDTPQQGSIQDINHRVWVLQDQTLIAVPRKDRMSPVTIALISCRHVETLEKDRGNPIYLGLNGLNLCLMCAKVGDQPTLQLKEKDIMDLYNQPEPVKSFLFYHSQSGRNSTFESVAFPGWFIAVSSEGGCPLILTQELGKANTTDFGLTMLF
With B2 the “WNT7B mRNA expression” value ([4]; qRT-PCR) was “promotes WNT7B expression”.
